From US12649750B2, “Macrocyclic compounds, compositions, and methods of using thereof” (Sionna Therapeutics Inc., priority 2022, dated 2026)

How the values were obtained:
NBD1 = biological target: T1, NBD1 (Homo sapiens, UniProt P13569); assay: Aggregation analysis using differential static light scattering (DSLS), thermal stability of NBD1 (ΔTagg); type: binding; conditions: ΔTagg versus DMSO control, NBD1 0.2 mg/ml
T1 construct: Purified recombinant NBD1 was produced using previously described methods; made in house
Outline: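 Purified recombinant NBD1 at 0.2 mg/ml in Tris buffer pH7.6 with 2 mM ATP, 5 mM MgCl2, 2 mM DTT and 1% glycerol was mixed with DMSO-dissolved compounds under mineral oil. Plates were heated at 1° C. per minute to 70° C., light scattering imaged every 0.5° C.; Tagg from curve inflection, minus DMSO-control mean.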

CFTR = biological target: T2, CFTR (Homo sapiens, UniProt P13569, DEL508-508); assay: TECC24 AUC fold over DMSO @10 μM, CFTR-mediated transepithelial chloride transport in CF-HBE cells; type: cell-based; conditions: test agent AUC divided by DMSO vehicle AUC, primary CF-HBE cells, ΔF508 homozygous donor, 48 hours incubation
T2 construct: Primary human bronchial epithelial cells from a ΔF508 homozygous CF donor; host or cells: primary human bronchial epithelial cells (CF-HBE), ΔF508 homozygous donor
Outline: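 Primary ΔF508-homozygous CF bronchial epithelial cells on inserts were incubated 48 h at 36.5 °C with compound in IL-13-containing medium. VT and TEER were then recorded in current-clamp mode (pH 7.4 HEPES bath) with benzamil 10 μM, forskolin 10 μM, then CFTR inhibitor-172 20 μM. The IEQ AUC between forskolin and inhibitor was divided by vehicle AUC.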

T1 sequence (P13569 423-646 limits assumed): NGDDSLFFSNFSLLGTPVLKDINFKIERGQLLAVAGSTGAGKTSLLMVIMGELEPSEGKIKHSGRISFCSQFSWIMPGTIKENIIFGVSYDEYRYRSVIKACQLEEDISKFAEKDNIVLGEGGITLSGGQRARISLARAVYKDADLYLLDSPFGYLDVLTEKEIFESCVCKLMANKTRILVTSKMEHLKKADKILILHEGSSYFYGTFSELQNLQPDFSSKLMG
T2 sequence (P13569 with tags, fused parts or gaps DEL508-508): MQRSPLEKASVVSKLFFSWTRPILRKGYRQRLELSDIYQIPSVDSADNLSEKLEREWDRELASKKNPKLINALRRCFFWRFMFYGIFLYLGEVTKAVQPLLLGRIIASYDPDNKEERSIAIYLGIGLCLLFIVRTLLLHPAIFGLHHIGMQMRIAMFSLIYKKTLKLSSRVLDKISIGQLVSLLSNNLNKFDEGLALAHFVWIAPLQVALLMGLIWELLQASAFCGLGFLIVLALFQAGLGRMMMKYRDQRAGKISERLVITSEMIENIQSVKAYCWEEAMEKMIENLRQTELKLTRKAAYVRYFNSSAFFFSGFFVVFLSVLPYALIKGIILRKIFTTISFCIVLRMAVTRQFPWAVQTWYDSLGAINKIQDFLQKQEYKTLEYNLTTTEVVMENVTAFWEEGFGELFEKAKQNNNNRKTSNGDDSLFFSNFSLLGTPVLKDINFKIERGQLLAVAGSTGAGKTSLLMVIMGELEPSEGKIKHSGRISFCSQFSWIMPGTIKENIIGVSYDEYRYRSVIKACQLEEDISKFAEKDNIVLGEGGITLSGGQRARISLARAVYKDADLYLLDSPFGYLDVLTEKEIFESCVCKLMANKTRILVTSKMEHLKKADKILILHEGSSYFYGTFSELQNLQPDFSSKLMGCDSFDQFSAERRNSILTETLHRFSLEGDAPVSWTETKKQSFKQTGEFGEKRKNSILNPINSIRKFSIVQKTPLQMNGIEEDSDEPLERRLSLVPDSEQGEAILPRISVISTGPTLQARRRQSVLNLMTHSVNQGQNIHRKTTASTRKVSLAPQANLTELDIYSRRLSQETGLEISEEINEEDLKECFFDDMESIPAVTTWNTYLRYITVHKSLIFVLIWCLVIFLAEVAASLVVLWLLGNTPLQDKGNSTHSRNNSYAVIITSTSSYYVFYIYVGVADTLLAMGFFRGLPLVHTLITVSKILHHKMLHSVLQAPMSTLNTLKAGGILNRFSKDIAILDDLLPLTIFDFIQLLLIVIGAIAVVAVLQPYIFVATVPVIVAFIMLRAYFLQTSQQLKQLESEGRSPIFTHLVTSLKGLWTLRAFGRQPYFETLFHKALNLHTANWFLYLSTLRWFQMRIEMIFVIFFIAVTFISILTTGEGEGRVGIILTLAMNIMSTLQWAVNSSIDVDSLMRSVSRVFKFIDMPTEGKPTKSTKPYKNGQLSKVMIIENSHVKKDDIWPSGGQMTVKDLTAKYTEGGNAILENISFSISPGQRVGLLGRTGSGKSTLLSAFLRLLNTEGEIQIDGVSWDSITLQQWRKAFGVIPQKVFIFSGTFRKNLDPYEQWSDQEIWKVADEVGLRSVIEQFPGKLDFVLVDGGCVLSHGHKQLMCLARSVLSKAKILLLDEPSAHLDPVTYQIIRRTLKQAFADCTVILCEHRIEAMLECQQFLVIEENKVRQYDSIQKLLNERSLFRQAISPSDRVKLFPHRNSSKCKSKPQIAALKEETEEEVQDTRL

In the case of `Cc1c2nnn1Cc1c(c(F)cc3[nH]ccc13)Oc1ccc(F)c(c1)-c1nc(nn1C)C(C)(c1cccc(CCC(=O)O)c1)CCS(=O)(=O)C2` (single isomer, unassigned) [Compound 101B, 3-[3-(23,29-difluoro-3,6,31-trimethyl-9,9-dioxo-25-oxa-9lambda6-thia-3,4,12,13,14,20,32-heptazahexacyclo[24.3.1.12,5.111,14.016,24.017,21]-dotriaconta-1(30),2(32),4,11(31),12,16,18,21,23,26,28-undecaen-6-yl)phenyl]propanoic Acid], the “DSLS 3D (100 μM ΔT)” value (NBD1) is reported as “B (a value above 5 °C and less than or equal to 10 °C is marked “B”)” and the “TECC (AUC, 10 μM)” value (CFTR) is reported as “A (a TECC value less than 12 is marked “A”)”.
With `Cn1nc2nc1-c1cc(ccc1F)Oc1c(F)cc3[nH]ccc3c1CCS(=O)(=O)CC(F)(F)C(C)(C)CCC2(C)c1cccc(CCC(=O)O)c1` (single isomer, unassigned) [Compound 102A, 3-[3-[10,10,22,28-tetrafluoro-3,6,9,9-tetramethyl-12,12-dioxo-24-oxa-12lambda6-thia-3,4,19,30-tetrazapentacyclo[23.3.1.12,5.015,23.016,20]-triaconta-1(29),2(30),4,15,17,20,22,25,27-nonaen-6-yl]phenyl]propanoic Acid] the “DSLS 3D (100 μM ΔT)” value (NBD1) was “A (an ΔTagg value less than or equal to 5 °C is marked “A”)” and the “TECC (AUC, 10 μM)” value (CFTR) was “A (a TECC value less than 12 is marked “A”)”.
For `Cn1nc2nc1-c1cc(ccc1F)Oc1c(F)cc3[nH]ccc3c1CCS(=O)(=O)CC(F)(F)C(C)(C)CCC2(C)c1cccc(CCC(=O)O)c1` (single isomer, unassigned) [Compound 102B, 3-[3-[10,10,22,28-tetrafluoro-3,6,9,9-tetramethyl-12,12-dioxo-24-oxa-12lambda6-thia-3,4,19,30-tetrazapentacyclo[23.3.1.12,5.015,23.016,20]triaconta-1(29),2(30),4,15,17,20,22,25,27-nonaen-6-yl]phenyl]propanoic acid], the “DSLS 3D (100 μM ΔT)” value (NBD1) was “B (a value above 5 °C and less than or equal to 10 °C is marked “B”)” and the “TECC (AUC, 10 μM)” value (CFTR) was “B (a value between 12-20 is marked “B”)”.
`CC(Cc1cccc(C2(CF)CCCC(C)(C)CS(=O)(=O)CCc3c(c(F)cc4[nH]ccc34)Oc3ccc(F)c(c3)-c3nc2nn3C)c1)C(=O)O` (single isomer, unassigned) [Compound 108A, 3-[3-[22,28-difluoro-6-(fluoromethyl)-3,10,10-trimethyl-12,12-dioxo-24-oxa-12λ6-thia-3,4,19,30-tetrazapentacyclo[23.3.1.12,5.015,23.016,20]triaconta-1(29),2(30),4,15,17,20,22,25,27-nonaen-6-yl]phenyl]-2-methyl-propanoic acid] was tested, and the “DSLS 3D (100 μM ΔT)” value (NBD1) was “A (an ΔTagg value less than or equal to 5 °C is marked “A”)” and the “TECC (AUC, 10 μM)” value (CFTR) was “A (a TECC value less than 12 is marked “A”)”.
In the case of `CC(Cc1cccc(C2(CF)CCCC(C)(C)CS(=O)(=O)CCc3c(c(F)cc4[nH]ccc34)Oc3ccc(F)c(c3)-c3nc2nn3C)c1)C(=O)O` (single isomer, unassigned) [Compound 108B, 3-[3-[22,28-difluoro-6-(fluoromethyl)-3,10,10-trimethyl-12,12-dioxo-24-oxa-12λ6-thia-3,4,19,30-tetrazapentacyclo[23.3.1.12,5.015,23.016,20]triaconta-1(29),2(30),4,15,17,20,22,25,27-nonaen-6-yl]phenyl]-2-methyl-propanoic acid], the “DSLS 3D (100 μM ΔT)” value (NBD1) is reported as “A (an ΔTagg value less than or equal to 5 °C is marked “A”)” and the “TECC (AUC, 10 μM)” value (CFTR) is reported as “C (a value between 20 and 80 is marked “C”)”.
For `Cn1nc2nc1-c1cc(ccc1F)Oc1c(F)cc3[nH]ccc3c1Cn1cc(cn1)C(C)(C)CS(=O)(=O)CCC2(C)c1cccc(CCC(=O)O)c1` (single isomer, unassigned) [Compound 109A, 3-[3-(24,30-difluoro-3,6,11,11-tetramethyl-9,9-dioxo-26-oxa-9lambda6-thia-3,4,14,15,21,33-hexazahexacyclo[25.3.1.12,5.112,15.017,25.018,22]tritriaconta-1(31),2(33),4,12(32),13,17,19,22,24,27,29-undecaen-6-yl)phenyl]propanoic Acid], the “DSLS 3D (100 μM ΔT)” value (NBD1) was “C (a value greater than 10 °C and less than or equal to 25 °C is marked “C”)” and the “TECC (AUC, 10 μM)” value (CFTR) was “C (a value between 20 and 80 is marked “C”)”.
In the case of `Cn1nc2nc1-c1cc(ccc1F)Oc1c(F)cc3[nH]ccc3c1Cn1cc(cn1)C(C)(C)CS(=O)(=O)CCC2(C)c1cccc(CCC(=O)O)c1` (single isomer, unassigned) [Compound 109B, 3-[3-(24,30-difluoro-3,6,11,11-tetramethyl-9,9-dioxo-26-oxa-9lambda6-thia-3,4,14,15,21,33-hexazahexacyclo[25.3.1.12,5.112,15.017,25.018,22]tritriaconta-1(31),2(33),4,12(32),13,17,19,22,24,27,29-undecaen-6-yl)phenyl]propanoic Acid], the “DSLS 3D (100 μM ΔT)” value (NBD1) is reported as “A (an ΔTagg value less than or equal to 5 °C is marked “A”)” and the “TECC (AUC, 10 μM)” value (CFTR) is reported as “A (a TECC value less than 12 is marked “A”)”.
For `CC(Cc1cccc(C2(C)COCC(C)(C)CS(=O)(=O)CCc3c(c(F)cc4[nH]ccc34)Oc3ccc(F)c(c3)-c3nc2nn3C)c1)C(=O)O` (single isomer, unassigned) [Compound 113A], the “DSLS 3D (100 μM ΔT)” value (NBD1) was “C (a value greater than 10 °C and less than or equal to 25 °C is marked “C”)” and the “TECC (AUC, 10 μM)” value (CFTR) was “A (a TECC value less than 12 is marked “A”)”.
In the case of `CC(Cc1cccc(C2(C)COCC(C)(C)CS(=O)(=O)CCc3c(c(F)cc4[nH]ccc34)Oc3ccc(F)c(c3)-c3nc2nn3C)c1)C(=O)O` (single isomer, unassigned) [Compound 113B], the “DSLS 3D (100 μM ΔT)” value (NBD1) is reported as “A (an ΔTagg value less than or equal to 5 °C is marked “A”)” and the “TECC (AUC, 10 μM)” value (CFTR) is reported as “A (a TECC value less than 12 is marked “A”)”.
`[2H]C([2H])([2H])C1(c2cccc(CC(C)C(=O)O)c2)COCC(C)(C)CS(=O)(=O)CCc2c(c(F)c(F)c3[nH]ccc23)Oc2ccc(F)c(c2)-c2nc1nn2C` (single isomer, unassigned) [Compound 118A, 2-methyl-3-[3-[21,22,28-trifluoro-3,10,10-trimethyl-12,12-dioxo-6-(trideuteriomethyl)-8,24-dioxa-12λ6-thia-3,4,19,30-tetrazapentacyclo[23.3.1.12,5.015,23.016,20]triaconta-1(29),2(30),4,15,17,20,22,25,27-nonaen-6-yl]phenyl]propanoic acid] was tested, and the “DSLS 3D (100 μM ΔT)” value (NBD1) was “C (a value greater than 10 °C and less than or equal to 25 °C is marked “C”)” and the “TECC (AUC, 10 μM)” value (CFTR) was “A (a TECC value less than 12 is marked “A”)”.
`[2H]C([2H])([2H])C1(c2cccc(CC(C)C(=O)O)c2)COCC(C)(C)CS(=O)(=O)CCc2c(c(F)c(F)c3[nH]ccc23)Oc2ccc(F)c(c2)-c2nc1nn2C` (single isomer, unassigned) [Compound 118B, 2-methyl-3-[3-[21,22,28-trifluoro-3,10,10-trimethyl-12,12-dioxo-6-(trideuteriomethyl)-8,24-dioxa-12λ6-thia-3,4,19,30-tetrazapentacyclo[23.3.1.12,5.015,23.016,20]triaconta-1(29),2(30),4,15,17,20,22,25,27-nonaen-6-yl]phenyl]propanoic acid] was tested, and the “DSLS 3D (100 μM ΔT)” value (NBD1) was “A (an ΔTagg value less than or equal to 5 °C is marked “A”)” and the “TECC (AUC, 10 μM)” value (CFTR) was “A (a TECC value less than 12 is marked “A”)”.
For `[2H]C([2H])([2H])C1(c2cccc(CC(C)C(=O)O)c2)CCC(C)(C)CCS(=O)(=O)CCc2c(c(F)cc3[nH]ccc23)Oc2ccc(F)c(c2)-c2nc1nn2C` (single isomer, unassigned) [Compound 119A, 3-[3-[22,28-difluoro-3,9,9-trimethyl-12,12-dioxo-6-(trideuteriomethyl)-24-oxa-12lambda6-thia-3,4,19,30-tetrazapentacyclo[23.3.1.12,5.015,23.016,20]triaconta-1(29),2(30),4,15,17,20,22,25,27-nonaen-6-yl]phenyl]-2-methyl-propanoic acid], the “DSLS 3D (100 μM ΔT)” value (NBD1) was “A (an ΔTagg value less than or equal to 5 °C is marked “A”)” and the “TECC (AUC, 10 μM)” value (CFTR) was “A (a TECC value less than 12 is marked “A”)”.
For `[2H]C([2H])([2H])C1(c2cccc(CC(C)C(=O)O)c2)CCC(C)(C)CCS(=O)(=O)CCc2c(c(F)cc3[nH]ccc23)Oc2ccc(F)c(c2)-c2nc1nn2C` (single isomer, unassigned) [Compound 119B, 3-[3-[22,28-difluoro-3,9,9-trimethyl-12,12-dioxo-6-(trideuteriomethyl)-24-oxa-12lambda6-thia-3,4,19,30-tetrazapentacyclo[23.3.1.12,5.015,23.016,20]triaconta-1(29),2(30),4,15,17,20,22,25,27-nonaen-6-yl]phenyl]-2-methyl-propanoic acid], the “DSLS 3D (100 μM ΔT)” value (NBD1) was “B (a value above 5 °C and less than or equal to 10 °C is marked “B”)” and the “TECC (AUC, 10 μM)” value (CFTR) was “A (a TECC value less than 12 is marked “A”)”.
In the case of `[2H]C([2H])([2H])C1(c2cccc(CC3(C(=O)O)CC3)c2)CCCC(C)(C)CS(=O)(=O)CCc2c(c(F)cc3[nH]ccc23)Oc2ccc(F)c(c2)-c2nc1nn2C` (single isomer, unassigned) [Compound 120A, 1-[[3-[22,28-difluoro-3,10,10-trimethyl-12,12-dioxo-6-(trideuteriomethyl)-24-oxa-12λ6-thia-3,4,19,30-tetrazapentacyclo[23.3.1.12,5.015,23.016,20]triaconta-1(29),2(30),4,15,17,20,22,25,27-nonaen-6-yl]phenyl]methyl]cyclopropanecarboxylic Acid], the “DSLS 3D (100 μM ΔT)” value (NBD1) is reported as “C (a value greater than 10 °C and less than or equal to 25 °C is marked “C”)” and the “TECC (AUC, 10 μM)” value (CFTR) is reported as “A (a TECC value less than 12 is marked “A”)”.
